Laboratory results taken from US20220348565A1, “PHARMACEUTICAL COMPOUNDS” (SENTINEL ONCOLOGY LIMITED, priority 2019, published 2022).

Key:
[1] = Chiral stability (interconversion) of isolated atropisomers on heating, chiral HPLC; format: physicochemical; conditions: for % ee of sample @ 40° C. / % ee sample @ 80° C.: EtOH solution, listed as A-2
Method: Stability studies were carried out on the isolated atropisomers, atropisomers A-1 and A-2. To assess the interconversion of atropisomer A-1 and atropisomer A-2 chiral stability was monitored at 40° C. and 80° C. […] 1. 2×1 mg of pure atropisomer was dissolved in 1 mL of EtOH in a sealed-dram vial. 2. One set of vials was heated at 40° C. and another set at 80° C. 3. […] 4. Analysis was carried out at the following timepoints: 0 h, 24 h, 48 h, 72 h, 96 h and 240 h for the samples kept at 40° C. and 24 h, 96 h and 240 h for the samples kept at 80° C. using Chiral HPLC method 5

[2] = system: panel of 48 cancer-derived cell lines; experiment: Proliferation assay on diverse cancer cell line panel, CellTiter-Glo, 72 hours; format: cell-based; conditions: for IC50: 72 hours, listed as A-2
Method: Screening against diverse cancer cell lines was performed to identify tumour types displaying sensitivity to atropisomers A-1 and A-2. A panel of 48 cancer-derived cell lines was screened in a high-throughput proliferation assay using dilutions of atropisomers A-1/A-2. Cell lines that were screened included those representing cancer of the pancreas, large intestine/colorectum, lung, brain and nerves, and lymphoma and leukaemia cell lines. Cell lines were treated with serial half-log dilutions of compound and assayed 72 hours later for proliferation using CellTiter-Glo Assay (Promega). IC50 values were calculated by fitting the dose-response data using a nonlinear regression model.

[3] = biological target: T1, panel of ninety-seven kinases (Homo sapiens, UniProt O00750); experiment: DiscoverX KinomeScreen kinase selectivity competition binding assay; conditions: PIK3C2B; read-out: % Ctrl @ 3 μM
T1 construct: purchased DiscoverX; host or cells: T7 phage in E. coli (BL21-derived) for most kinases; HEK-293 for the rest
Procedure, shortened: (§1)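 Site-directed competition binding: kinase (T7 phage-tagged or HEK-293-expressed, DNA-tagged) captured on immobilized biotinylated ligand beads, with compound at 3000 nM. Bound kinase eluted and quantified by qPCR. Reported as % Ctrl, with DMSO as 100% and control compound as 0%.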

[4] = biological target: T2, panel of ninety-seven kinases (Homo sapiens, UniProt P04629); experiment: as above; conditions: NTRK1; read-out: % Ctrl @ 3 μM
T2 construct: purchased DiscoverX; host or cells: T7 phage in E. coli (BL21-derived) for most kinases; HEK-293 for the rest
T2 sequence (P04629 33-796): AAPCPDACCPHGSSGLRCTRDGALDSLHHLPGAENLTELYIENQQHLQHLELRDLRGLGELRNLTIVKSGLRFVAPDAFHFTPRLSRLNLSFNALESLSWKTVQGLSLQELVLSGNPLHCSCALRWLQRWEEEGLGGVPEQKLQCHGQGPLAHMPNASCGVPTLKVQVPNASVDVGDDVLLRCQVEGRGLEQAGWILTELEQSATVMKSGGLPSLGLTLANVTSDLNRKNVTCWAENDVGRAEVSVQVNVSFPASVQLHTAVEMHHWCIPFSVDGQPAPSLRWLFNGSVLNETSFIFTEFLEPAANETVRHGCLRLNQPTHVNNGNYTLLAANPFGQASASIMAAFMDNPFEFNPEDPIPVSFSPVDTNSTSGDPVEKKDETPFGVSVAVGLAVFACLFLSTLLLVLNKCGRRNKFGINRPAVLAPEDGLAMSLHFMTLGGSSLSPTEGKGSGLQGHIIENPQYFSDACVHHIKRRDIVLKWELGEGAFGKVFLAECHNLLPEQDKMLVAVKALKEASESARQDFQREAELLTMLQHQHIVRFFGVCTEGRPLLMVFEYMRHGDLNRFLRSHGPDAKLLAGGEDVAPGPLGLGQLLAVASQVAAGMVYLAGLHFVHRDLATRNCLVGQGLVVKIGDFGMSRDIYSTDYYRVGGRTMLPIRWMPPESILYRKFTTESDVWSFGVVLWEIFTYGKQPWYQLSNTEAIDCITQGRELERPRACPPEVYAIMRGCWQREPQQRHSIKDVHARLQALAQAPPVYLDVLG
Procedure, shortened: as §1

[5] = biological target: T3, panel of ninety-seven kinases (Homo sapiens, UniProt P07949); experiment: as above; conditions: RET; read-out: % Ctrl @ 3 μM
T3 construct: purchased DiscoverX; host or cells: T7 phage in E. coli (BL21-derived) for most kinases; HEK-293 for the rest
Procedure, shortened: as §1

[6] = biological target: T4, panel of ninety-seven kinases (Homo sapiens, UniProt P21802); experiment: as above; conditions: FGFR2; read-out: % Ctrl @ 3 μM
T4 construct: purchased DiscoverX; host or cells: T7 phage in E. coli (BL21-derived) for most kinases; HEK-293 for the rest
T4 sequence (P21802 22-821): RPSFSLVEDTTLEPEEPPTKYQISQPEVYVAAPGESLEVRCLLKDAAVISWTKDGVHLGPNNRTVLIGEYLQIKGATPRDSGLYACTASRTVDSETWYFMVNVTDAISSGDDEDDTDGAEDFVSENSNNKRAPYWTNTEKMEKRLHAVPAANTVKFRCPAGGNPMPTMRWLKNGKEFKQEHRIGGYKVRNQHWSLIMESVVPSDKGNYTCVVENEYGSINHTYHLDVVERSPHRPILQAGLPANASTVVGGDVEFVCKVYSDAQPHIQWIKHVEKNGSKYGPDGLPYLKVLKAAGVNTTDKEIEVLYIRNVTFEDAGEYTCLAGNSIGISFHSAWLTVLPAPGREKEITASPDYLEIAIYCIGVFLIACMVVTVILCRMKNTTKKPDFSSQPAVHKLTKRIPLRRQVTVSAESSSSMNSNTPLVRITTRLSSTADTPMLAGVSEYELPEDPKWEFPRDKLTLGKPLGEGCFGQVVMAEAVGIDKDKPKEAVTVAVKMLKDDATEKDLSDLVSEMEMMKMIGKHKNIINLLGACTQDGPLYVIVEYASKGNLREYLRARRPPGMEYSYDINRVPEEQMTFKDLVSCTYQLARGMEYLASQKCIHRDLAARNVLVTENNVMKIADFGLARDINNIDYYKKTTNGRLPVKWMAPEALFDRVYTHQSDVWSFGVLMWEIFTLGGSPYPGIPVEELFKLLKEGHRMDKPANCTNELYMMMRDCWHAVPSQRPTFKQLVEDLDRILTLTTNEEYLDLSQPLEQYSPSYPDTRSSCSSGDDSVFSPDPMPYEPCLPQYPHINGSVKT
Procedure, shortened: as §1

[7] = biological target: T5, panel of ninety-seven kinases (Homo sapiens, UniProt P31751); experiment: as above; conditions: AKT2; read-out: % Ctrl @ 3 μM
T5 construct: purchased DiscoverX; host or cells: T7 phage in E. coli (BL21-derived) for most kinases; HEK-293 for the rest
T5 sequence (P31751 whole entry): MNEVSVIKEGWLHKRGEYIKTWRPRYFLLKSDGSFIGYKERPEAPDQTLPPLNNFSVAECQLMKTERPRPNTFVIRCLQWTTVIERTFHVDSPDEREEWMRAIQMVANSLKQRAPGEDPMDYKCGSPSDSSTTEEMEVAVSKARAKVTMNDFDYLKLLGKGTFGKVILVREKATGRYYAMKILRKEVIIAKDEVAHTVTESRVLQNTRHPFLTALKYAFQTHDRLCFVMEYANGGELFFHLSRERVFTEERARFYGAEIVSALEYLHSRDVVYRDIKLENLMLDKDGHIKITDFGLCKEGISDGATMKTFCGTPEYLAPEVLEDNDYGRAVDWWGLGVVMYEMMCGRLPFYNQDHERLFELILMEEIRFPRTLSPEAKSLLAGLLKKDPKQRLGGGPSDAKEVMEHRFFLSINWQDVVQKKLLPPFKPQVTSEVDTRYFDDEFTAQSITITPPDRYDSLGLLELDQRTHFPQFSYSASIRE
Procedure, shortened: as §1

[8] = biological target: T6, panel of ninety-seven kinases (Homo sapiens, UniProt P50750); experiment: as above; conditions: CDK9; read-out: % Ctrl @ 3 μM
T6 construct: purchased DiscoverX; host or cells: T7 phage in E. coli (BL21-derived) for most kinases; HEK-293 for the rest
T6 sequence (P50750 whole entry): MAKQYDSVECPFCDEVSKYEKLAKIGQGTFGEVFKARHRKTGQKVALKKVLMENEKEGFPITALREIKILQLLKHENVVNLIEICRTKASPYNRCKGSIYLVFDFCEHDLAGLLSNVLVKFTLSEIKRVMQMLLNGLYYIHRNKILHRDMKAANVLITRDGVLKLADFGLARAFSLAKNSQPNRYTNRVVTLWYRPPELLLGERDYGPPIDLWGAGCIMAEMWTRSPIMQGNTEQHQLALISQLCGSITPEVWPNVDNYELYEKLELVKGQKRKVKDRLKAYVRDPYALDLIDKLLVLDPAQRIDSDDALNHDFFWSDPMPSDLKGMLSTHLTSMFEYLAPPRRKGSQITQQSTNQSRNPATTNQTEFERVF
Procedure, shortened: as §1

[9] = biological target: T7, panel of ninety-seven kinases (Homo sapiens, UniProt P53779); experiment: as above; conditions: MAPK10; read-out: % Ctrl @ 3 μM
T7 construct: purchased DiscoverX; host or cells: T7 phage in E. coli (BL21-derived) for most kinases; HEK-293 for the rest
T7 sequence (P53779 whole entry): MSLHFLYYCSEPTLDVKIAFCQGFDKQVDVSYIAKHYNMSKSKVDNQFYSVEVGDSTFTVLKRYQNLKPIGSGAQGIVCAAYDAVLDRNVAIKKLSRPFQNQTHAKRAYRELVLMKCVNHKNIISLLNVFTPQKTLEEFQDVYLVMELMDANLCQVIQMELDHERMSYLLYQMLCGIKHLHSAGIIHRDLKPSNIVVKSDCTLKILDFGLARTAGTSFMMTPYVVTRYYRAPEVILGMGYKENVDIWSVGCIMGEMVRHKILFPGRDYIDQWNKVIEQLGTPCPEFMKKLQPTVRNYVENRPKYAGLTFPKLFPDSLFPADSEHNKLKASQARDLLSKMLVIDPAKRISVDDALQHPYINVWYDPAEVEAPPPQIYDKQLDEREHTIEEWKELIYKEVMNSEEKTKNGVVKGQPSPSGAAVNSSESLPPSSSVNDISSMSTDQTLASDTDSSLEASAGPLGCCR
Procedure, shortened: as §1

[10] = biological target: T8, panel of ninety-seven kinases (Homo sapiens, UniProt Q06187); experiment: as above; conditions: BTK; read-out: % Ctrl @ 3 μM
T8 construct: purchased DiscoverX; host or cells: T7 phage in E. coli (BL21-derived) for most kinases; HEK-293 for the rest
T8 sequence (Q06187 whole entry): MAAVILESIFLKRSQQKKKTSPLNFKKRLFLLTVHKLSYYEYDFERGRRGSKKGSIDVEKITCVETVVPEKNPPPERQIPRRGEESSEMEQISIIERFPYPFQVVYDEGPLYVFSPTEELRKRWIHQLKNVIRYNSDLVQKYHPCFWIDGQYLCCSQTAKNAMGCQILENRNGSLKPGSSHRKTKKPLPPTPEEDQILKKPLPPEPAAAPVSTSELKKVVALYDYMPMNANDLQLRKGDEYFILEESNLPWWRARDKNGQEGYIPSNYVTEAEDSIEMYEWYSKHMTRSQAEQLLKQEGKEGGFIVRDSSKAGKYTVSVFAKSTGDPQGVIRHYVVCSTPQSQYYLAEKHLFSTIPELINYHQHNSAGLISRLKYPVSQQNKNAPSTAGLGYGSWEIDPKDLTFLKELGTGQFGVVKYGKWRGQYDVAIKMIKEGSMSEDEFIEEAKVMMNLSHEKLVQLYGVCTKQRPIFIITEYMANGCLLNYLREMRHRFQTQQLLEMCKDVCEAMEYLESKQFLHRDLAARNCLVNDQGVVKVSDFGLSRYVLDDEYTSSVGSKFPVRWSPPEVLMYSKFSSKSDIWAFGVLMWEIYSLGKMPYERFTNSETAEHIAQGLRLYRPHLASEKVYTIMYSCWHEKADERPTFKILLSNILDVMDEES
Procedure, shortened: as §1

[11] = biological target: T9, panel of ninety-seven kinases (Homo sapiens, UniProt Q9BXA7); experiment: as above; conditions: TSSK1B; read-out: % Ctrl @ 3 μM
T9 construct: purchased DiscoverX; host or cells: T7 phage in E. coli (BL21-derived) for most kinases; HEK-293 for the rest
T9 sequence (Q9BXA7 whole entry): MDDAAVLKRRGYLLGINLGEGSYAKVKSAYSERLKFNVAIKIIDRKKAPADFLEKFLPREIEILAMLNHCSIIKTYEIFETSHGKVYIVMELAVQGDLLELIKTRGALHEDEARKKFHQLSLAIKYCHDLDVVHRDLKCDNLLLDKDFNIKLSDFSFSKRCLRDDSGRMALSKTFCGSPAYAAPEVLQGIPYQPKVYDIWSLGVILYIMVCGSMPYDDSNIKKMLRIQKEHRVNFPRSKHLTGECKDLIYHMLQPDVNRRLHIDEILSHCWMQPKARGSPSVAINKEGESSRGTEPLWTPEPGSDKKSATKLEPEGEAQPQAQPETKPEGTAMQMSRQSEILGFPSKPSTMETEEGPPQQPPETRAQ
Procedure, shortened: as §1

[12] = biological target: T10, panel of ninety-seven kinases (Homo sapiens, UniProt Q9P1W9); experiment: as above; conditions: PIM2; read-out: % Ctrl @ 3 μM
T10 construct: purchased DiscoverX; host or cells: T7 phage in E. coli (BL21-derived) for most kinases; HEK-293 for the rest
T10 sequence (Q9P1W9 whole entry): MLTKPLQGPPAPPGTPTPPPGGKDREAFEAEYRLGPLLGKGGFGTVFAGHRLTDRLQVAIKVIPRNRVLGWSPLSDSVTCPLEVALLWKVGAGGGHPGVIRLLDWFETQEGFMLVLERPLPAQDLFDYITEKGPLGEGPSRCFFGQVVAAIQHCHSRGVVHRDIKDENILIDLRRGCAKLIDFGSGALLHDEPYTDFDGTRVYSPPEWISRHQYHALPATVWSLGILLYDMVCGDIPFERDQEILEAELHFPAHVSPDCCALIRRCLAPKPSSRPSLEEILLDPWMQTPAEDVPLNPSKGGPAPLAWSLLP
Procedure, shortened: as §1

PLK1 catalytic domain = biological target: T11, PLK1 catalytic domain (Homo sapiens, UniProt P53350); experiment: DiscoverX KinomeScreen competition binding assay, PLK1; conditions: read-out: % Ctrl @ 3 μM
T11 construct: purchased DiscoverX; host or cells: T7 phage in E. coli (BL21-derived) or HEK-293
T11 sequence (P53350 53-305 limits assumed): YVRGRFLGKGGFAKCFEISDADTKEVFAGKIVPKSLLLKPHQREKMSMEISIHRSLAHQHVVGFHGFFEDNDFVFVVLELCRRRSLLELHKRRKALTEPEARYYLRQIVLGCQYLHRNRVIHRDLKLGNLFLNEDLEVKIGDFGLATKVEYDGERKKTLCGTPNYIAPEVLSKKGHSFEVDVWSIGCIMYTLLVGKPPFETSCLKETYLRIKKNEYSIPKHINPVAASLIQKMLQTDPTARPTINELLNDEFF
Method: Atropisomer A-2 has been tested for off-target activity against a panel of ninety-seven kinases distributed across the kinome at a concentration of 3 μM using the DiscoverX KinomeScreen assay. The DiscoverX KinomeScreen assay is a site-directed competition binding assay which measures the binding affinity of a compound to a kinase, by use of a solid supported control compound which can bind or capture the kinases in solution. In the absence of a kinase-inhibitor test compound, all of the kinase will bind to the solid support. If a kinase-inhibitor test compound is added to the assay mix, the amount of kinase binding to the solid support will be reduced, the extent of reduction being dependent on the potency of the test compound as a kinase inhibitor. […] For most assays, kinase-tagged T7 phage strains were grown in parallel in 24-well blocks in an E. coli host derived from the BL21 strain. […] The kinase concentration in the eluates was measured by qPCR. […] The strength of binding of the test molecule to the kinase can be expressed as the percent control (% Ctrl) The compound(s) were screened at 3000 nM concentration, and results for primary screen binding interactions are reported as ‘% Ctrl’, where lower numbers indicate stronger hits in the matrix on the following page(s). […]

- % ee of sample @ 40° C. ([1]; 0 h): 97.20 % ee
- % ee of sample @ 40° C. ([1]; 24 h): 97.34 % ee
- % ee of sample @ 40° C. ([1]; 48 h): 97.30 % ee
- % ee of sample @ 40° C. ([1]; 72 h): 97.24 % ee
- % ee of sample @ 40° C. ([1]; 96 h): 97.14 % ee
- % ee of sample @ 40° C. ([1]; 10 days): 97.46 % ee
- % ee sample @ 80° C. ([1]; 0 h): 97.20 % ee
- % ee sample @ 80° C. ([1]; 24 h): 95.62 % ee
- % ee sample @ 80° C. ([1]; 96 h): 96.62 % ee
- % ee sample @ 80° C. ([1]; 10 days): 97.12 % ee
- atropisomer classification (LaPlante) ([1]; from stability of isolated atropisomers): Class 3
- interconversion / racemization of atropisomers on heating ([1]; heating for 10 days at 40° C. and 80° C.): no interconversion was observed
- IC50 ([2]; HOT 116, Large intestine/Colorectum): 230 nM
- IC50 ([2]; ML-2, Blood/Leukaemia): 180 nM
- IC50 ([2]; SVV620, Large intestine/Colorectum): 190 nM
- percent of control kinase binding to immobilized ligand at 3 µM [3]: 100%
- percent of control kinase binding to immobilized ligand at 3 µM [4]: 100%
- percent of control kinase binding to immobilized ligand at 3 µM [5]: 95%
- percent of control kinase binding to immobilized ligand at 3 µM [6]: 85%
- percent of control kinase binding to immobilized ligand at 3 µM [7]: 100%
- percent of control kinase binding to immobilized ligand at 3 µM [8]: 97%
- percent of control kinase binding to immobilized ligand at 3 µM [9]: 93%
- percent of control kinase binding to immobilized ligand at 3 µM [10]: 94%
- percent of control kinase binding to immobilized ligand at 3 µM [11]: 100%
- percent of control kinase binding to immobilized ligand at 3 µM [12]: 100%
- remaining binding at 3 µM (PLK1 catalytic domain): 97%
SMILES: CN(C)CCNC(=O)c1ccc(-c2ccc(-c3ccc(Cl)cc3)n2-c2ccccc2C(F)(F)F)cc1 (single isomer, unassigned) [Atropisomer A-2, 4-[5-(4-chlorophenyl)-1-[2-(trifluoromethyl)phenyl]pyrrol-2-yl]-N-[2-(dimethylamino)ethyl]benzamide]
- cell growth inhibition compared with atropisomer A-1 ([2]; all of the cell lines of the panel): significantly more active
